Source: patent publication US6759431B2, “Compositions and methods for treating or preventing diseases of body passageways” (Angiotech Pharmaceuticals, Inc., priority 1996, dated 2004)
Where “and” joins values, the source holds several entries; their conditions need not be identical. Equal values may be shown once. Read-outs that look alike come from different tables or passages of the source. Each block holds one compound with its values, some of them ahead of it.

Key:
[1] = system: HT-29 colon, MCF-7 breast and SKMES1 non-small cell lung human tumor cell lines; assay: Radiometric (Bactec) cytotoxicity, tumor cell lines; assay type: cell-based; details: continuous exposure
Protocol: A. Human Tumor Cell Lines The HT-29 colon, MCF-7 breast and SKMES1 non-small cell lung human tumor cell lines were obtained from the American Type Culture Collection. The HT-29 colon cell line was cultured in RPMI 1640 with 10% heat inactivated fetal bovine serum (HIFBS), the MCF-7 breast cell line in Iscove's modified Eagles medium with 5% HIFBS plus 10^-9 M insulin, and the SKMES1 lung cell line in Eagle's minimal essential medium with 10% non-heat inactivated FBS.
(§1) The Bactec system (Johnston Laboratories, Towson, Md.) is based on a clinical instrument which was developed to detect bacteria in blood cultures and has been used to screen for new antineoplastic agents. This radiometric system is a rapid, semiautomated system which utilizes the inhibition of the conversion of ^14C glucose to […] as an index of cytotoxicity. The Bactec machine automatically flushes out the ^14CO2 into an ion chamber where the signal of the radiolabelled CO2 is changed into a proportional electrical signal or growth index value on a scale of 1 to 1000. […] The growth index values of BMOV treated cells were compared to the growth index values of non-treated cells and the % survival compared to untreated controls was calculated.

MDAY-D2 tumor = assay: BMOV microspheres, tumor growth in mice; assay type: in vivo; details: s.c.
Protocol: (§2) Twenty of twenty-four mice were injected subcutaneously with […] of MDAY-D2 cells with density of 10×10^6/ml. On day 6 the mice were divided into 6 groups. Group 1, empty control, group 2, tumor control, group 3, were injected subcutaneously with 0.25 mg/100 ul BMOV, twice a day. Group 4 was injected IP with 20 mg PLLA microspheres containing 5 mg of BMOV. Group 5 was injected IP with 10 mg of BMOV microspheres on day 6 and day 9 respectively. Group 6 was injected intramuscularly with 10 mg of BMOV microspheres on day 6 and day 9. On day 16, the mice were sacrificed and tumors were dissected.

[2] = Body weights of mice, BMOV microsphere study; assay type: in vivo; details: 0.25 mg × 1, subcutaneous, in g (unit assumed)
Protocol: as §2

[3] = system: normal human bone marrow cells; assay: Radiometric (Bactec) cytotoxicity, marrow cells; assay type: cell-based
Protocol: Normal human bone marrow (histologically negative for tumor cells) was obtained from patients who were to have bone marrow transplants for their solid tumors but died before the marrow was used. After centrifugation, the buffy coat was removed and cells were treated with lysis buffer and washed twice with and then resuspended in RPMI 1640 with 20% HIFBS. The cells were drawn through a 25 g needle and counted.
as §1

[4] = Solubility of vanadium complexes in PBS/ALB; assay type: physicochemical; details: 10 mM PBS with albumin, pH 7.4
Protocol: Quantitative analysis (UV/VIS spectrophometric analysis) was done with different concentrations of vanadium solutions to obtain the wavelengths of peak absorbance and the calibration equations. Solubility of vanadium was studies in 10 mM phosphate buffered saline with albumin (PBS/ALB) (pH 7.4). 1%, 5%, 10%, and 20% (% vanadium complex in PCL) of each organic complex form of vanadium were encapsulated in a biodegradable polymer PCL and/or in blends of PLC with MePEG (MW 350) to produce a polymeric drug delivery product called a “thermopaste”. In vitro release studies of the various forms of vanadium from thermopastes were carried out at 37° C. in PBS/ALB with vanadium release measured by UV/VIS absorbance spectroscopy.

CAM = assay type: in vivo, chick; details: for drug loading that was toxic to the embryo: chick, in vivo
Protocol: Vinca alkaloids (vinblastine and vincristine) were ground with a pestle and mortar to reduce the particle size to below 5 microns. They were then mixed as a dry powder with polycaprolactone (molecular wt. 18000 Birmingham Polymers, AL USA). The mixture is heated to 65° C. for 5 minutes and the molten polymer/agent mixture is stirred into a smooth paste for 5 minutes. The molten paste is then taken into a 1 ml syringe and extruded to form 3 mg pellets. These pellets were then tested in the CAM assay.

[5] = Solubility of paclitaxel in cyclodextrin solutions; assay type: physicochemical; details: 50% HPβCD in water, 37° C.
Protocol: Excess amounts of paclitaxel (5 mg) were added to aqueous solutions containing various concentrations of γ-CD, HPγ-CD, or HPβ-CD and tumbled gently for about 24 hours at 37° C. After equilibration, aliquots of the suspension were filtered through a 0.45 μm membrane filter (Millipore), suitably diluted and analyzed using HPLC. The mobile phase was composed of a mixture of acetonitrile, methanol and water (58:5:37) at a flow rate of 1.0 ml min^−1.

[6] = Release from 50:50 ELVAX:poly-l-lactic acid microspheres, tumbling at 37° C.; assay type: physicochemical; details: 18 hours tumbling at 37° C.
Protocol: Five hundred micrograms of either paclitaxel or baccatin (a paclitaxel analog, available from Inflazyme Pharmaceuticals Inc., Vancouver, British Columbia, Canada) are dissolved in 1 ml of a 50:50 ELVAX:poly-1-lactic acid mixture in dcm. Microspheres are then prepared in a dissolution machine (Six-spindle dissolution tester, VanderKanp, Van Kell Industries Inc., U.S.A.) in triplicate at 200 rpm, 42° C., for 3 hours. Microspheres so prepared are washed twice in water and sized on the microscope.
Determination of paclitaxel encapsulation is undertaken in a uv/vis assay (uv/vis lambda max. at 237 nm, fluorescence assay at excitation 237, emission at 325 nm; Fluorescence results are presented in square brackets [ ]).

[7] = Stability of paclitaxel in cyclodextrin solutions; assay type: physicochemical
Protocol: The solutions containing 20% HPβCD or HPγCD had pH values of 3.9 and 5.2, respectively. The stability of paclitaxel in cyclodextrin solutions was investigated by assaying paclitaxel in solutions (20 μg ml^−1) containing 10 or 20% HPγ-CD or HPβ-CD in either water or a 50:50 water-ethanol mixture at 37° C. or 55° C. at various time intervals. In addition, stability of paclitaxel in solutions (1 μg/ml) containing 1%, 2% or 5% HPβCD at 55° C. were determined.

[8] = Complexation of paclitaxel with cyclodextrins (stability constants); assay type: physicochemical; details: for estimated stability constants for first order complexes of paclitaxel-cyclodextrins / stability constants for second order complexes of paclitaxel-cyclodextrins: water, 37° C.
Protocol: Excess amounts of paclitaxel (5 mg) were added to aqueous solutions containing various concentrations of γ-CD, HPγ-CD, or HPβ-CD and tumbled gently for about 24 hours at 37° C. After equilibration, aliquots of the suspension were filtered through a 0.45 μm membrane filter (Millipore), suitably diluted and analyzed using HPLC. […] Aliquots were taken at various time intervals and assayed for paclitaxel.

[9] = fluorescence assay (square brackets)

Compound: Cc1occc(=O)c1[O-].Cc1occc(=O)c1[O-].[O]=[V+2] [BMOV, Bis[maltolato(oxovanadium)] (IV)]]
- antineoplastic effect in vitro [1]: antineoplastic effect of BMOV have been shown in vitro
- Tumor weight, Average (MDAY-D2 tumor): 0.15
- Tumor weight, individual mice (MDAY-D2 tumor; listed as BMOV solution): 0.04 and 0.4 and 0.12 and 0.07
- Body weights, Average [2]: 17.87
- Body weights, individual mice ([2]; listed as BMOV Solution): 18.4 and 17.3 and 18 and 17.8
- survival compared to untreated controls ([3]; continuous exposure, 50 μM): 49%
- effect on cells ([3]; one hour exposure, up to 50 μM): very little effect
- rate and extent of solubility, order [4]: V5>BMOV & BEMOV>PRC-V

Compound: CC[C@]1(O)C[C@@H]2CN(CCc3c([nH]c4ccccc34)[C@@](C(=O)OC)(c3cc4c(cc3OC)N(C)[C@H]3[C@@](O)(C(=O)OC)[C@H](OC(C)=O)[C@]5(CC)C=CCN6CC[C@]43[C@@H]65)C2)C1 [Vinblastine, vinblastine]
- angiogenesis inhibition on the CAM (CAM; 0.25%, 0.5% and 1% in PCL pellets): effective in inhibiting angiogenesis
- drug loading that was toxic to the embryo (CAM): exceeding 2%

Compound: CC[C@]1(O)C[C@H]2CN(CCc3c([nH]c4ccccc34)[C@@](C(=O)OC)(c3cc4c(cc3OC)N(C=O)[C@H]3[C@@](O)(C(=O)OC)[C@H](OC(C)=O)[C@]5(CC)C=CCN6CC[C@]43[C@@H]65)C2)C1 [vincristine]
- angiogenesis inhibition on the CAM (CAM; 0.5% and 0.1% drug loading in PCL pellets): all of the CAMs tested
- drug loading that was toxic to the embryo (CAM): exceeding 2%

Compound: baccatin
- percent of total released from the microspheres [6, 9]: 60%
- percent of total released from the microspheres ([6]; uv/vis assay): 55%

Continued, values first:

- fold increase over the solubility of paclitaxel in water [5]: ~2000 fold
- percent of total released from the microspheres [6, 9]: 6%
- percent of total released from the microspheres ([6]; uv/vis assay): 10.3%
- degradation rate constant k (pseudo-first order) ([7]; 1 μg/ml paclitaxel, 1% HPβCD, 55° C.): 0.00338 h⁻¹
- degradation rate constant ([7]; 10% HPβCD (FIG. 47 legend: 20 μg ml^−1, 37° C.)): 0.00178 h⁻¹
- degradation rate constant ([7]; 10% HPγCD (FIG. 47 legend: 20 μg ml^−1, 37° C.)): 0.00096 h⁻¹
Compound: CC(=O)O[C@H]1C(=O)[C@@]2(C)[C@H]([C@H](OC(=O)c3ccccc3)[C@]3(O)C[C@H](OC(=O)[C@H](O)[C@@H](NC(=O)c4ccccc4)c4ccccc4)C(C)=C1C3(C)C)[C@]1(OC(C)=O)CO[C@@H]1C[C@@H]2O [paclitaxel]

- estimated stability constants for first order complexes of paclitaxel-cyclodextrins [8]: 3.1 M⁻¹
- stability constants for second order complexes of paclitaxel-cyclodextrins [8]: 785 M⁻¹
Compound: OC[C@H]1O[C@@H]2O[C@H]3[C@H](O)[C@@H](O)[C@@H](O[C@H]4[C@H](O)[C@@H](O)[C@@H](O[C@H]5[C@H](O)[C@@H](O)[C@@H](O[C@H]6[C@H](O)[C@@H](O)[C@@H](O[C@H]7[C@H](O)[C@@H](O)[C@@H](O[C@H]8[C@H](O)[C@@H](O)[C@@H](O[C@H]9[C@H](O)[C@@H](O)[C@@H](O[C@H]1[C@H](O)[C@H]2O)O[C@@H]9CO)O[C@@H]8CO)O[C@@H]7CO)O[C@@H]6CO)O[C@@H]5CO)O[C@@H]4CO)O[C@@H]3CO [γ-CD, γ-cyclodextrin]

- times lower than the stability constant in the absence of ethanol ([8]; 50% ethanol): about 300 times
- apparent stability constant for the complexation with paclitaxel ([8]; in the presence of 50% ethanol): 26.57 M⁻¹
- estimated stability constants for first order complexes of paclitaxel-cyclodextrins [8]: 7.2 M⁻¹
- stability constants for second order complexes of paclitaxel-cyclodextrins [8]: 7965 M⁻¹
Compound: Hydroxypropyl-β-cyclodextrin [HPβCD]

- estimated stability constants for first order complexes of paclitaxel-cyclodextrins [8]: 5.8 M⁻¹
- stability constants for second order complexes of paclitaxel-cyclodextrins [8]: 1886 M⁻¹
Compound: hydroxypropyl-γ-cyclodextrin [HPγCD]
